Test results reported in patent US20230391760A1, “HETEROCYCLIC GLP-1 AGONISTS” (Gasherbrum Bio, Inc., priority 2020, published 2023).

Target: GLP-1 Receptor (Homo sapiens, UniProt P43220)
Test: GLP-1R agonist cAMP stimulation assay (HEK293/GLP1R/CRE-LUC cells, cAMP dynamic 2 Kit)
Format: cell-based
Conditions: HEK293/CRE-Luc cell line stably expressing the GLP-1 Receptor, 30 min at 37° C.
Outline: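 cAMP measured by HTRF competition (d2-labelled cAMP with cryptate antibody, 1 h, room temperature, protected from light). Before that, GLP1R/CRE-Luc HEK293 cells (1000/well) were exposed for 30 min at 37 °C to half-log compound dilutions in DPBS containing IBMX 0.5 mM and BSA 0.1%.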

GLP-1 Receptor, sequence (P43220 24-463, species assumed): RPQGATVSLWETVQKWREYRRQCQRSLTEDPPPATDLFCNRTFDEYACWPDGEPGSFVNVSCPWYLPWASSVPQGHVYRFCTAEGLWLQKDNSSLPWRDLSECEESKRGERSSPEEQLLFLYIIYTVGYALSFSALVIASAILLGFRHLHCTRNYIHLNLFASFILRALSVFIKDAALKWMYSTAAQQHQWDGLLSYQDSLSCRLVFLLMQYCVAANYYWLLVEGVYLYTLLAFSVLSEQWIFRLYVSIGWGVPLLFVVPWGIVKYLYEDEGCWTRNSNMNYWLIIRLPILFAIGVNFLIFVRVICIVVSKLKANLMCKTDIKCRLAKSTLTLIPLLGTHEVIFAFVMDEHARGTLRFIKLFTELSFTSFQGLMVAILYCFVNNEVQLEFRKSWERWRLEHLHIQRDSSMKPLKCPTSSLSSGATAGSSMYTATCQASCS

Row | Structure (SMILES) | EC50 [pM]
1 | N#Cc1ccc(COc2cccc(N3CCN(Cc4nc5cc(-c6nnc(C(F)(F)F)[nH]6)nnc5n4C[C@@H]4CCO4)CC3)n2)c(F)c1 [Compound 493a, 3-fluoro-4-{[(6-{4-[(7-{[(2S)-oxetan-2-yl]methyl}-3-[5-(trifluoromethyl)-4H-1,2,4-triazol-3-yl]-7H-imidazo[4,5-c]pyridazin-6-yl)methyl]piperazin-1-yl}pyridin-2-yl)oxy]methyl}benzonitrile] | 44
2 | C[C@]1(c2ccc(C#N)cc2F)Oc2cccc(C3CCN(Cc4nc5cc(-c6nnc(C(F)(F)F)[nH]6)nnc5n4C[C@@H]4CCO4)CC3)c2O1 [Compound 447a, 3-fluoro-4-[(2S)-2-methyl-4-{1-[(7-{[(2S)-oxetan-2-yl]methyl}-3-[5-(trifluoromethyl)-4H-1,2,4-triazol-3-yl]-7H-imidazo[4,5-c]pyridazin-6-yl)methyl]piperidin-4-yl}-2H-1,3-benzodioxol-2-yl]benzonitrile] | 19
3 | Fc1cc(Cl)ccc1COc1cccc(C2CCN(Cc3nc4cc(-c5ccn(C6CCCOC6)n5)ccc4n3C[C@@H]3CCO3)CC2)n1 (stereo partly drawn) [Compound 216a, 2-[(4-{6-[(4-chloro-2-fluorophenyl)methoxy]pyridin-2-yl}piperidin-1-yl)methyl]-5-[1-(oxan-3-yl)-1H-pyrazol-3-yl]-1-{[(2S)-oxetan-2-yl]methyl}-1H-1,3-benzodiazole] | 8800
4 | CC1(c2ccc(Cl)cc2F)Oc2cccc(C3CCN(Cc4nc5cc(-c6nnc(C(F)F)[nH]6)cnc5n4C[C@@H]4CCO4)CC3)c2O1 (stereo partly drawn) [Compound 244a, 4-[2-(4-chloro-2-fluorophenyl)-2-methyl-2H-1,3-benzodioxol-4-yl]-1-({6-[5-(difluoromethyl)-4H-1,2,4-triazol-3-yl]-3-{[(2S)-oxetan-2-yl]methyl}-3H-imidazo[4,5-b]pyridin-2-yl}methyl)piperidine] | 140
5 | O=S1(=O)CCCN1c1ccc2c(c1)nc(CN1CCC(c3cccc(OCc4ccc(Cl)cc4F)n3)CC1)n2C[C@@H]1CCO1 [Compound 118a, (S)-2-(2-((4-(6-((4-chloro-2-fluorobenzyl)oxy)pyridin-2-yl)piperidin-1-yl)methyl)-1-(oxetan-2-ylmethyl)-1H-benzo[d]imidazol-5-yl)isothiazolidine 1,1-dioxide] | 10000
6 | CNc1c(Nc2ccc3c(c2)nc(CN2CCC(c4cccc(OCc5ccc(Cl)cc5F)n4)CC2)n3C[C@@H]2CCO2)c(=O)c1=O [Compound 208a, 3-({2-[(4-{6-[(4-chloro-2-fluorophenyl)methoxy]pyridin-2-yl}piperidin-1-yl)methyl]-1-{[(2S)-oxetan-2-yl]methyl}-1H-1,3-benzodiazol-5-yl}amino)-4-(methylamino)cyclobut-3-ene-1,2-dione] | 1800
7 | C[C@H]1CN(c2ncc(F)c(OCc3ccc(Cl)cc3F)n2)CCN1Cc1nc2cc(-c3nnc(C(F)(F)F)[nH]3)cnc2n1C[C@@H]1CCO1 [Compound 527a, 4-[(4-chloro-2-fluorophenyl)methoxy]-5-fluoro-2-[(3S)-3-methyl-4-[(3-{[(2S)-oxetan-2-yl]methyl}-6-[5-(trifluoromethyl)-4H-1,2,4-triazol-3-yl]-3H-imidazo[4,5-b]pyridin-2-yl)methyl]piperazin-1-yl]pyrimidine] | 33
8 | CC(=O)Nc1cnc2c(c1)nc(CN1CCC(c3cccc(OCc4ccc(Cl)cc4F)n3)CC1)n2C[C@@H]1CCO1 [Compound 131a, N-{2-[(4-{6-[(4-chloro-2-fluorophenyl)methoxy]pyridin-2-yl}piperidin-1-yl)methyl]-3-{[(2S)-oxetan-2-yl]methyl}-3H-imidazo[4,5-b]pyridin-6-yl}acetamide] | 6300
9 | Fc1cc(Cl)ccc1COc1cccc(C2CCN(Cc3nc4cc(-n5cc(C6CCCOC6)nn5)ccc4n3C[C@@H]3CCO3)CC2)n1 (stereo partly drawn) [Compound 211a, 2-[(4-{6-[(4-chloro-2-fluorophenyl)methoxy]pyridin-2-yl}piperidin-1-yl)methyl]-5-[4-(oxan-3-yl)-1H-1,2,3-triazol-1-yl]-1-{[(2S)-oxetan-2-yl]methyl}-1H-1,3-benzodiazole] | 3600
10 | CC1(c2ccc(Cl)cn2)Oc2cccc(C3CCN(Cc4nc5cc(-c6nnc(C(F)(F)F)[nH]6)ccc5n4C[C@@H]4CCO4)CC3)c2O1 (stereo partly drawn) [Compound 257a, 2-({4-[2-(5-chloropyridin-2-yl)-2-methyl-2H-1,3-benzodioxol-4-yl]piperidin-1-yl}methyl)-1-{[(2S)-oxetan-2-yl]methyl}-5-[5-(trifluoromethyl)-4H-1,2,4-triazol-3-yl]-1H-1,3-benzodiazole] | 98
11 | Cc1nnc(-c2ccc3c(c2)nc(CN2CCC(c4cccc5c4OC(C)(c4ccc(Cl)cn4)O5)CC2)n3CC2(C#N)CC2)[nH]1 (stereo not shown) [Compound 414, 1-{[2-({4-[2-(5-chloropyridin-2-yl)-2-methyl-2H-1,3-benzodioxol-4-yl]piperidin-1-yl}methyl)-5-(5-methyl-4H-1,2,4-triazol-3-yl)-1H-1,3-benzodiazol-1-yl]methyl}cyclopropane-1-carbonitrile] | 55
12 | O=c1[nH]c(-c2cc3nc(CN4CCC(c5cccc6c5OC[C@@H](c5ccc(Cl)cc5)O6)CC4)n(C[C@@H]4CCO4)c3cn2)no1 [Compound 422a, 3-[2-({4-[(2R)-2-(4-chlorophenyl)-2,3-dihydro-1,4-benzodioxin-5-yl]piperidin-1-yl}methyl)-3-{[(2S)-oxetan-2-yl]methyl}-3H-imidazo[4,5-c]pyridin-6-yl]-4,5-dihydro-1,2,4-oxadiazol-5-one] | 170
13 | C[C@H]1CN(c2cccc(OCc3ccc(Cl)cc3F)n2)CCN1Cc1nc2cc(-c3nnc(C(F)(F)F)[nH]3)nnc2n1C[C@@H]1CCO1 [Compound 519a, (2S)-4-{6-[(4-chloro-2-fluorophenyl)methoxy]pyridin-2-yl}-2-methyl-1-[(7-{[(2S)-oxetan-2-yl]methyl}-3-[5-(trifluoromethyl)-4H-1,2,4-triazol-3-yl]-7H-imidazo[4,5-c]pyridazin-6-yl)methyl]piperazine] | 40
14 | CO[C@H](C)Cn1c(CN2CCC(c3cccc4c3O[C@@](C)(c3ccc(Cl)cn3)O4)CC2)nc2cc(-c3noc(=O)[nH]3)ncc21 [Compound 466a, 3-[2-({4-[(2S)-2-(5-chloropyridin-2-yl)-2-methyl-2H-1,3-benzodioxol-4-yl]piperidin-1-yl}methyl)-3-[(2R)-2-methoxypropyl]-3H-imidazo[4,5-c]pyridin-6-yl]-4,5-dihydro-1,2,4-oxadiazol-5-one] | 190
15 | Cc1cc(C(=O)Nc2ccc3c(c2)nc(CN2CCC(c4cccc(OCc5ccc(Cl)cc5F)n4)CC2)n3C[C@@H]2CCO2)nn1C [Compound 187a, N-{2-[(4-{6-[(4-chloro-2-fluorophenyl)methoxy]pyridin-2-yl}piperidin-1-yl)methyl]-1-{[(2S)-oxetan-2-yl]methyl}-1H-1,3-benzodiazol-5-yl}-1,5-dimethyl-1H-pyrazole-3-carboxamide] | 880
16 | CC1(c2ccc(Cl)cc2F)Oc2cccc(C3CCN(Cc4nc5cc(-c6nnc(C(F)(F)F)[nH]6)cnc5n4C[C@@H]4CCO4)CC3)c2O1 (single isomer, unassigned) [Compound 224b] | 1700
17 | CC1(c2ccc(Cl)cc2F)Oc2cccc(C3CCN(Cc4nc5cc(-c6cn(CCC(=O)O)nn6)ccc5n4C[C@@H]4CCO4)CC3)c2O1 (stereo partly drawn) [Compound 251a, 3-{4-[2-({4-[2-(4-chloro-2-fluorophenyl)-2-methyl-2H-1,3-benzodioxol-4-yl]piperidin-1-yl}methyl)-1-{[(2S)-oxetan-2-yl]methyl}-1H-1,3-benzodiazol-5-yl]-1H-1,2,3-triazol-1-yl}propanoic acid] | 110
18 | O=C(Nc1ccc2c(c1)nc(CN1CCC(c3cccc(OCc4ccc(Cl)cc4F)n3)CC1)n2C[C@@H]1CCO1)N1CCC(O)C1 (stereo partly drawn) [Compound 207a, N-{2-[(4-{6-[(4-chloro-2-fluorophenyl)methoxy]pyridin-2-yl}piperidin-1-yl)methyl]-1-{[(2S)-oxetan-2-yl]methyl}-1H-1,3-benzodiazol-5-yl}-3-hydroxypyrrolidine-1-carboxamide] | 390
19 | Cc1cc(=O)[nH]c(-c2cc3nc(CN4CCC(c5cccc(OCc6ccc(Cl)cc6F)n5)CC4)n(C[C@@H]4CCO4)c3cn2)n1 [Compound 453a, 2-{2-[(4-{6-[(4-chloro-2-fluorophenyl)methoxy]pyridin-2-yl}piperidin-1-yl)methyl]-3-{[(2S)-oxetan-2-yl]methyl}-3H-imidazo[4,5-c]pyridin-6-yl}-6-methyl-3,4-dihydropyrimidin-4-one] | 1900
20 | CC1(c2ccc(Cl)cn2)Oc2cccc(C3CCN(Cc4nc5cc(-c6n[nH]c(C(F)(F)F)n6)cnc5n4C[C@@H]4CCO4)CC3)c2O1 (mixture of isomers) [Compound 333a, 5-chloro-2-(2-methyl-4-{1-[(3-{[(2S)-oxetan-2-yl]methyl}-6-[5-(trifluoromethyl)-4H-1,2,4-triazol-3-yl]-3H-imidazo[4,5-b]pyridin-2-yl)methyl]piperidin-4-yl}-2H-1,3-benzodioxol-2-yl)pyridine] | 30
21 | O=C(NC1CC1)c1ccc2c(c1)nc(CN1CCC(c3cccc(OCc4ccc(Cl)cc4F)n3)CC1)n2C[C@@H]1CCO1 [Compound 396a, 2-[(4-{6-[(4-chloro-2-fluorophenyl)methoxy]pyridin-2-yl}piperidin-1-yl)methyl]-N-cyclopropyl-1-{[(2S)-oxetan-2-yl]methyl}-1H-1,3-benzodiazole-5-carboxamide] | 3200
22 | O=c1[nH]c(-c2cc3nc(CN4CCC(c5ccc(F)c(OCc6ccc(Cl)cc6F)n5)CC4)n(C[C@@H]4CCO4)c3cn2)no1 [Compound 438a, 3-{2-[(4-{6-[(4-chloro-2-fluorophenyl)methoxy]-5-fluoropyridin-2-yl}piperidin-1-yl)methyl]-3-{[(2S)-oxetan-2-yl]methyl}-3H-imidazo[4,5-c]pyridin-6-yl}-4,5-dihydro-1,2,4-oxadiazol-5-one] | 26
